Reference: patent publication US12653817B2, “Pharmaceutical composition comprising protein kinase inhibitor and chemotherapeutic drug and use thereof” (SHENZHEN CHIPSCREEN BIOSCIENCES CO., LTD., priority 2020, dated 2026)
Entries after “also recorded” stand apart in the source; their conditions may differ.

Experiments:
[1] = test system: relapsed and refractory ovarian cancer; assay: Phase Ib single-arm clinical trial of chiauranib capsules, efficacy; type: in vivo, human
Text: A single-arm, multi-center, non-randomized, open-label phase Ib trial.
Main inclusion criteria: Patients with histologically diagnosed epithelial ovarian cancer, fallopian tube cancer or primary peritoneal carcinoma; patients who had received platinum-based chemotherapy regimens, and platinum-resistant patients who achieved progressive or relapsed disease after had received ≥2 different chemotherapy regimens; platinum-sensitive patients who achieved progressive or relapsed disease after had received ≥2 different chemotherapy regimens, or who refused to receive further chemotherapy.
(§1) Medication regimen: 50 mg of chiauranib was taken orally every morning on an empty stomach, once a day, every 28 days as a treatment cycle, and there was no drug withdrawal interval between the treatment cycles. The treatment was continued until any of the following conditions occurred (whichever occurred first): progressive disease, intolerable toxicity reaction, death, withdrawal of informed consent, or loss to follow-up.
Efficacy indicators: The efficacy indicators were evaluated by investigators and imaging experts according to RECIST1.1 criteria.
Main: Objective response rate (ORR).
Secondary: Progression-free survival (PFS), time to progression (TTP), 16-week disease control rate (16W-DCR), duration of response (DOR) of disease, overall survival (OS).
Twenty-five patients with relapsed and refractory ovarian cancer were enrolled in the study, and the number of previous treatment regimens they had received was ≥3. 3 cases (12.0%) were sensitive to the last platinum-containing chemotherapy, and 22 cases (88.0%) were refractory or resistant to the last platinum-containing chemotherapy. As of the cut-off date for trial data (Mar. 20, 2019), 16 patients (64.0%) discontinued the treatment due to progressive disease, 3 patients (12.0%) discontinued the treatment due to adverse events, and other reasons for the discontinuation of the treatment comprised voluntary withdrawal of subjects, end of trial and loss to follow-up.
The full analysis set (FAS) and safety data set (SS) were used for analysis, and 25 subjects were included in each data set.

[2] = Phase Ib single-arm clinical trial of chiauranib capsules, safety evaluation; type: in vivo
Method: as §1
The safety indicators comprised adverse events, vital signs, ECG and abnormal laboratory results, which were evaluated according to CTCAE V4.03. Twenty-five patients with relapsed and refractory ovarian cancer were enrolled in the study and included in the safety data set (SS) for analysis.

[3] = test system: platinum-refractory/resistant relapsed advanced ovarian cancer; conditions: historical data; cited from earlier work
[4] = 25 patients, cut-off Mar. 20, 2019
[5] = chiauranib 50 mg orally once a day, N = 25, cut-off Mar. 20, 2019
[6] = increase in serum creatine phosphokinase MB, 25 subjects

COc1ccc2c(Oc3ccc4c(C(=O)Nc5ccccc5N)cccc4c3)ccnc2c1 [chiauranib, N-(2-aminophenyl)-6-(7-methoxyquinoline-4-oxy)-1-naphthamide]
Discontinued the treatment due to progressive disease, % [1, 4]: 64.0%
Discontinued the treatment due to progressive disease, patients [1, 4]: 16 patients
Duration of response, Event ([1]; N = 25, cut-off Mar. 20, 2019): 0
Overall survival, Event ([1]; N = 25, cut-off Mar. 20, 2019): 11
Progression-free survival, Event (progressive disease or death) ([1]; N = 25, cut-off Mar. 20, 2019): 12
Time to progression, Event ([1]; N = 25, cut-off Mar. 20, 2019): 11
16-week disease control rate ([1]; chiauranib 50 mg orally once a day, N = 25): 32.0%
Objective response rate ([1]; chiauranib 50 mg orally once a day, N = 25, RECIST1.1): 4.0%
Progression-free survival, median [1, 5]: 3.7 month
Time to progression, median [1, 5]: 3.7 month
Efficacy conclusion, single-agent ([1]; subjects with platinum-refractory/resistant relapsed ovarian cancer who had received multiple chemotherapies): shown preliminary efficacy in tumor response; also recorded: showed primary efficacy of tumor response
Abdominal pain, % ([2]; 25 subjects): 52.0%
Abdominal pain, cases ([2]; 25 subjects): 13 cases
Adverse event leading to the discontinuation of the treatment, % ([2]; 25 subjects): 12.0%
Adverse event leading to the discontinuation of the treatment, patients ([2]; 25 subjects): 3 patients
Adverse event leading to the suspension of chiauranib, % ([2]; 25 subjects): 40.7%
Adverse event leading to the suspension of chiauranib, patients ([2]; 25 subjects): 11 patients
At least one common adverse event, % ([2]; 25 subjects): 100%
At least one common adverse event, subjects ([2]; 25 subjects): 25 subjects
Diarrhea, % ([2]; 25 subjects): 72.0%
Diarrhea, cases ([2]; 25 subjects): 18 cases
Discontinuation due to bile duct obstruction ([2]; 25 subjects): dysfunction syndrome, 1 case of bile duct
Discontinuation due to electrolyte disturbance ([2]; 25 subjects): obstruction, and 1 case of electrolyte
Fatigue, % ([2]; 25 subjects): 64.0%
Fatigue, cases ([2]; 25 subjects): 16 cases
Hypertension, % ([2]; 25 subjects): 44.0%
Hypertension, cases ([2]; 25 subjects): 11 cases
Loss of appetite, % ([2]; 25 subjects): 64.0%
Loss of appetite, cases ([2]; 25 subjects): 16 cases
Proteinuria, % ([2]; 25 subjects): 60.0%
Proteinuria, cases ([2]; 25 subjects): 15 cases
Related serious adverse event: hypokalemia ([2]; 25 subjects): electrolyte disturbance, 1 case of hypokalemia,
Serious adverse events judged to be related to chiauranib (definitely related, possibly related, undetermined), cases ([2]; 25 subjects): 5 cases
Suspension due to decreased appetite ([2]; 25 subjects): ventricular dysfunction, 1 case of infection, 1
Suspension due to increased alanine aminotransferase ([2]; 25 subjects): 1 case
Suspension due to infection ([2]; 25 subjects): ventricular dysfunction, 1 case of infection, 1
Suspension due to proteinuria ([2]; 25 subjects): 2 cases
Weight loss, % ([2]; 25 subjects): 56.0%
Weight loss, cases ([2]; 25 subjects): 14 cases
Serious adverse events, % of patients ([2]; 25 subjects, CTCAE V4.03): 32.0%
Serious adverse events, cases ([2]; 25 subjects, CTCAE V4.03): 9 cases
Serious adverse events, patients ([2]; 25 subjects, CTCAE V4.03): 8 patients
Adverse event leading to the reduction of the dosage of chiauranib, % [2, 6]: 4.0%
Adverse event leading to the reduction of the dosage of chiauranib, patients [2, 6]: One
Adverse event leading to death, % ([2]; multiple organ dysfunction syndrome, 25 subjects): 4.0%
Adverse event leading to death, patients ([2]; multiple organ dysfunction syndrome, relation to chiauranib undetermined, 25 subjects): One
Tolerability of single-agent therapy ([2]; toxicity characteristics similar to VEGFR target drugs): can be tolerated by most subjects

CC(=O)O[C@H]1C(=O)[C@@]2(C)[C@H]([C@H](OC(=O)c3ccccc3)[C@]3(O)C[C@H](OC(=O)[C@H](O)[C@@H](NC(=O)c4ccccc4)c4ccccc4)C(C)=C1C3(C)C)[C@]1(OC(C)=O)CO[C@@H]1C[C@@H]2O [paclitaxel]
Response rate of single-agent [3]: about 21%

COc1cc([C@@H]2c3cc4c(cc3[C@@H](O[C@@H]3O[C@@H]5CO[C@@H](C)O[C@H]5[C@H](O)[C@H]3O)[C@H]3COC(=O)[C@H]23)OCO4)cc(OC)c1O [etoposide]
Response rate of single-agent [3]: about 27%
